Reference: patent US20170129903A1, “COMPOUNDS COMPRISING 1,1a,2,5a-TETRAHYDROSPIRO[INDOLE-3,2a-PYRROLE]-2,5a-DIONE SYSTEM AS INHIBITORS P53-MDM2 PROTEIN-PROTEIN INTERACTION” (ADAMED SP. Z O.O., priority 2014, published 2017)

Tests used:
[1] = test system: SJSA-1 osteosarcoma cell line; test: MTT cell viability assay; assay type: cell-based; conditions: 72 h incubation, average of 2-5 experiments
In short: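 Cells exposed to serial compound dilutions for 72 h, then MTT (0.5 mg/ml final) added for 4 h; formazan dissolved in DMSO. IC50 from dose-response curves, 2-5 independent repeats.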

SJSA-1 xenograft = test: In vivo efficacy in the SJSA-1 xenograft model in mice; conditions: compound 93 100 mg/kg p.o. q1dx14 vs control NaCl 0.9%, female Crl:SHO-Prkdc scid Hr hr mice, during and at the end of study
Description: The experiment was conducted on female mice from the Crl:SHO-Prkdc^scidHr^hr strain. Mice were inoculated subcutaneously in the right flank with cancer cell line SJSA-1 in the amount of […] cells suspended in 100 μl HBSS: Matrigel matrix in a 3:1 ratio per mouse. On the 16th day after inoculation mice were divided into groups, so that in each group the mean tumor volume was similar and averaged around 160 mm^3. Two experiment groups were selected, each consisting of 5 mice: Control NaCl 0.9% and compound 93. The compound 93 was dissolved in 15% PEG400, 10% Cremophore EL, 75% H2O.
Mice used in the experiment were administered per os (p.o.) with compounds or NaCl 0.9% in a q1dx14 schedule (14 doses, daily). During the course of experiment mice were weighed before each administration,—twice/thrice a week. Animal welfare was monitored daily.
Change in tumor volume was monitored twice/thrice a week starting from the first day of administration. Tumor volume was calculated based on its length and width measured with an electronic calipers:
V[mm^3]=d^2×D/2 • where d—width, D—length.
The tumor volume in the compound 93 group was measured up to 68 days after inoculation (39 days after last administration). Results of the experiment were expressed as mean values of tumor volume ±SEM. All calculations and graphs were performed using GraphPad Prism 5 software. […]

[2] = biological target: T1, p53-Mdm2 interaction (N-terminal domain of Mdm2 protein, amino acids 1-111) (Homo sapiens, UniProt Q00987); test: Fluorescence polarization (FP) binding assay of p53-Mdm2 interaction; conditions: FP assay, 130 nM Mdm2, FAM-labelled p53 peptide; Ki transformed from IC50 using Kenakin equation
T1 construct: N-terminal domain of Mdm2 protein (amino acids 1-111)
T1 sequence (Q00987 1-111): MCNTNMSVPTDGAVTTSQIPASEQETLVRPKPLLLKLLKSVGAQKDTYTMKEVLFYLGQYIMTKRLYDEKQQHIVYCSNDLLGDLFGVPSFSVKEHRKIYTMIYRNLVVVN
In short: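 N-terminal Mdm2 (aa 1-111) at 130 nM preincubated 15 min with compound (5% DMSO) in PBS, 0.1% CHAPS, 5 mM DTT, then […] FAM-labelled p53 peptide added. Polarization read after 90 min at room temperature (ex 470/em 520 nm). IC50 converted to Ki by Kenakin equation.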

| SMILES | IC50 ([1]; Homo sapiens, SJSA-1, 72 h) [µM] | difference in body weight or welfare between experiment groups (SJSA-1 xenograft) | Ki [2] [nM] | IC50 [1] [µM] |
| --- | --- | --- | --- | --- |
| COc1ccc(-n2cc3c(c2C(C)C)C2(C(=O)Nc4cc(Cl)ccc42)N(c2cc(Cl)ccc2C)C3=O)c(OC)c1 (centres unmarked) [Compound 93, 6-chloro-2′-(5-chloro-2-methylphenyl)-5′-(2,4-dimethoxyphenyl)-6′-(propan-2-yl)-1,2,3′,5′-tetrahydro-2′H-spiro[indole-3,1′-pyrrolo[3,4-c]pyrrole]-2,3′-dione] | 0.42 | No significant difference | 3.8 |  |
| Cc1ccc(Cl)cc1N1C(=O)c2cn(-c3cccc4c3OCO4)c(C(C)C)c2C12C(=O)Nc1cc(Cl)ccc12 (centres unmarked) [Compound 94, 5′-(2H-1,3-benzodioxol-4-yl)-6-chloro-2′-(5-chloro-2-methylphenyl)-6′-(propan-2-yl)-1,2,3′,5′-tetrahydro-2′H-spiro[indole-3,1′-pyrrolo[3,4-c]pyrrole]-2,3′-dione] | 0.93 |  | 9.6 |  |
| COc1ccc(NC(C)=O)cc1-n1cc2c(c1C(C)C)[C@@]1(C(=O)Nc3cc(Cl)ccc31)N(c1cc(Cl)ccc1C)C2=O [Compound 108, N-{3-[(3S)-6-chloro-2′-(5-chloro-2-methylphenyl)-2,3′-dioxo-6′-(propan-2-yl)-1,2,3′,5′-tetrahydro-2′H-spiro[indole-3,1′-pyrrolo[3,4-c]pyrrole]-5′-yl]-4-methoxyphenyl}acetamide] | 0.35 |  | 1.6 |  |
| COc1ccccc1-n1nc2c(c1C(C)C)C1(C(=O)Nc3cc(Cl)ccc31)N(c1cccc(Cl)c1)C2=O (centres unmarked) [Compound 27, 6-chloro-5′-(3-chlorophenyl)-2′-(2-methoxyphenyl)-3′-(propan-2-yl)-1,2,5′,6′-tetrahydro-2′H-spiro[indole-3,4′-pyrrolo [3,4-c]pyrazole]-2,6′-dione] | 1.07 |  | 4.3 |  |
| CCN(CC)S(=O)(=O)c1ccc(OC)c(-n2cc3c(c2C(C)C)C2(C(=O)Nc4cc(Cl)ccc42)N(c2cc(Cl)ccc2C)C3=O)c1 (centres unmarked) [Compound 98, 3-[6-chloro-2′-(5-chloro-2-methylphenyl)-2,3′-dioxo-6′-(propan-2-yl)-1,2,3′,5′-tetrahydro-2′H-spiro[indole-3,1′-pyrrolo [3,4-c]pyrrole]-5′-yl]-N,N-diethyl-4-methoxybenzene-1-sulfonamide] | 0.38 |  | 4.6 |  |
| COc1ccccc1-n1nc2c(c1C(C)C)[C@@]1(C(=O)Nc3cc(Cl)ccc31)N(c1cncc(Cl)c1)C2=O [Compound 88, (3S)-6-chloro-5′-(5-chloropyridin-3-yl)-2′-(2-methoxyphenyl)-3′-(propan-2-yl)-1,2,5′,6′-tetrahydro-2′H-spiro[indole-3,4′-pyrrolo[3,4-c]pyrazole]-2,6′-dione] |  |  | 1.9 | 0.34 |
| COC(=O)c1ccc(OC)c(-n2nc3c(c2C(C)C)C2(C(=O)Nc4cc(Cl)ccc42)N(c2cc(Cl)ccc2O)C3=O)c1 (centres unmarked) [Compound 79, methyl 3-[6-chloro-5′-(5-chloro-2-hydroxyphenyl)-2,6′-dioxo-3′-(propan-2-yl)-1,2,5′,6′-tetrahydro-2′H-spiro[indole-3,4′-pyrrolo[3,4-c]pyrazole]-2′-yl]-4-methoxybenzoate] | 1.02 |  | 5.7 |  |
| COc1ccccc1-n1nc2c(c1C(C)C)C1(C(=O)Nc3cc(Cl)ccc31)N(c1cc(Cl)cnc1C)C2=O (centres unmarked) [Compound 71, 6-chloro-5′-(5-chloro-2-methylpyridin-3-yl)-2′-(2-methoxyphenyl)-3′-(propan-2-yl)-1,2,5′,6′-tetrahydro-2′H-spiro[indole-3,4′-pyrrolo[3,4-c]pyrazole]-2,6′-dione] | 0.46 |  | 4.3 |  |
| COc1ccccc1-n1cc2c(c1C(C)C)C1(C(=O)Nc3cc(Cl)ccc31)N(c1cc(Cl)ccc1[N+](=O)[O-])C2=O (centres unmarked) [Compound 90, 6-chloro-2′-(5-chloro-2-nitrophenyl)-5′-(2-methoxyphenyl)-6′-(propan-2-yl)-1,2,3′,5′-tetrahydro-2′H-spiro[indole-3,1′-pyrrolo [3,4-c]pyrrole]-2,3′-dione] | 6.19 |  | 33 |  |
| COc1ccccc1-n1nc2c(c1C(C)C)C1(C(=O)Nc3cc(Cl)ccc31)N(c1cc(Cl)ccc1OCCS(C)(=O)=O)C2=O (centres unmarked) [Compound 73, 6-chloro-5′-[5-chloro-2-(2-methanesulfonylethoxy)phenyl]-2′-(2-methoxyphenyl)-3′-(propan-2-yl)-1,2,5′,6′-tetrahydro-2′H-spiro[indole-3,4′-pyrrolo [3,4-c]pyrazole]-2,6′-dione] | 11.4 |  | 42 |  |
| CN(C)C(=O)C1CCCC1Cn1nc2c(c1C1(C)CC1)C1(C(=O)Nc3cc(Cl)ccc31)N(c1cccc(Cl)c1)C2=O (centres unmarked) [Compound 29, 2-[6-chloro-5′-(3-chlorophenyl)-3′-(1-methylcyclopropyl)-2,6′-dioxo-1,2,5′,6′-tetrahydro-2′H-spiro[indole-3,4′-pyrrolo [3,4-c]pyrazole]-2′-ylmethyl]-N,N-dimethylcyclopentane-1-carboxamide] | 48.8 |  | 358 |  |
